In ChEMBL document CHEMBL3822366, “Design, synthesis and anticancer activity of novel hybrid compounds between benzofuran and N-aryl piperazine” (Bioorg Med Chem Lett, 2016):

Tests used:
[1] = tested on: MCF7; test: Cytotoxicity against human MCF7 cells after 48 hrs by MTT assay; assay type: functional, cell-based; details: MCF7, 48 h
[2] = tested on: HeLa; test: Cytotoxicity against human HeLa cells after 48 hrs by MTT assay; assay type: functional, cell-based
[3] = Cytotoxicity against human SGC7901 cells after 48 hrs by MTT assay; assay type: functional, cell-based; details: SGC-7901, 48 h
[4] = tested on: A549; test: Cytotoxicity against human A549 cells after 48 hrs by MTT assay; assay type: functional, cell-based; details: A549, 48 h
[5] = Cytotoxicity against human L02 cells at <40 uM after 48 hrs by MTT assay; assay type: cell-based; details: l02, 48 h

SMILES | IC50 [1] | IC50 [2] | IC50 [3] | IC50 [4] | Activity [5]
CCN(CC)c1ccc2cc(C(=O)c3ccc(N4CCN(C(=O)c5ccc(Cl)c(Cl)c5)CC4)cc3)oc2c1 | 8.08 µM | 15.2 µM | 5.84 µM | 0.22 µM | –
CCN(CC)c1ccc2cc(C(=O)c3ccc(N4CCN(S(=O)(=O)c5ccc(Br)cc5)CC4)cc3)oc2c1 | 26.1 µM | > 40 µM | > 40 µM | 34.3 µM | –
CCN(CC)c1ccc2cc(C(=O)c3ccc(N4CCN(S(=O)(=O)c5ccc(Br)c(F)c5)CC4)cc3)oc2c1 | 2.27 µM | 20.7 µM | > 40 µM | 15.1 µM | –
CCN(CC)c1ccc2cc(C(=O)c3ccc(N4CCN(C(=O)c5ccccc5Cl)CC4)cc3)oc2c1 | 26.3 µM | 0.34 µM | 12 µM | 6.11 µM | –
CCN(CC)c1ccc2cc(C(=O)c3ccc(N4CCN(C(=O)c5ccccc5)CC4)cc3)oc2c1 | > 40 µM | 15.2 µM | > 40 µM | > 40 µM | –
CCN(CC)c1ccc2cc(C(=O)c3ccc(N4CCN(C(=O)COc5ccc(Cl)cc5Cl)CC4)cc3)oc2c1 | 12.4 µM | 0.03 µM | 6.17 µM | 5.73 µM | Non-toxic
CCOC(=O)N1CCN(c2ccc(C(=O)c3cc4ccc(N(CC)CC)cc4o3)cc2)CC1 | > 40 µM | 20.3 µM | > 40 µM | > 40 µM | –
CCN(CC)c1ccc2cc(C(=O)c3ccc(N4CCN(C(=O)c5cccc(C(F)(F)F)c5)CC4)cc3)oc2c1 | 34.1 µM | 0.4 µM | 11.3 µM | 9.27 µM | –
CCN(CC)c1ccc2cc(C(=O)c3ccc(N4CCN(S(=O)(=O)c5ccc(C(F)(F)F)cc5)CC4)cc3)oc2c1 | > 40 µM | 9.72 µM | 0.17 µM | 11.1 µM | –
CCN(CC)c1ccc2cc(C(=O)c3ccc(N4CCN(C(C)=O)CC4)cc3)oc2c1 | 16.2 µM | 5.15 µM | 25.6 µM | 30.1 µM | –
CCN(CC)c1ccc2cc(C(=O)c3ccc(N4CCN(S(=O)(=O)c5ccc(F)cc5)CC4)cc3)oc2c1 | 21.7 µM | 21.6 µM | > 40 µM | 16.4 µM | –
CCN(CC)c1ccc2cc(C(=O)c3ccc(N4CCN(C(=O)c5ccc(Br)cc5F)CC4)cc3)oc2c1 | > 40 µM | 0.53 µM | 13.5 µM | 20.4 µM | –
CCN(CC)c1ccc2cc(C(=O)c3ccc(N4CCN(S(=O)(=O)c5ccc(C)cc5)CC4)cc3)oc2c1 | > 40 µM | 37.8 µM | > 40 µM | > 40 µM | –
CCN(CC)c1ccc2cc(C(=O)c3ccc(N4CCN(S(=O)(=O)c5ccc([N+](=O)[O-])cc5)CC4)cc3)oc2c1 | > 40 µM | > 40 µM | 1.86 µM | 24.4 µM | –
CCN(CC)c1ccc2cc(C(=O)c3ccc(N4CCN(C(=O)c5ccc([N+](=O)[O-])c([N+](=O)[O-])c5)CC4)cc3)oc2c1 | 19.6 µM | 25.2 µM | > 40 µM | > 40 µM | –
CCN(CC)c1ccc2cc(C(=O)c3ccc(N4CCN(S(C)(=O)=O)CC4)cc3)oc2c1 | > 40 µM | > 40 µM | > 40 µM | > 40 µM | –
